Where a SMILES comes first, the peptide text is derived from it. [ ]: non-standard residue; d: D form. The star is where a group is joined. Gly(N-(2R-Ph-propyl)) = C[C@@H](CNCC(=O)O)c1ccccc1; Piperidin1yl(4-NH2,4-COOH) = NC1(C(=O)O)CCN(*)CC1
Tested on: incision pain in rats
Test: Incision pain test in rats, mechanical pain threshold by Electronic Von Frey
Type: in vivo, rat (male Wistar)
Conditions: for increase of tenderness threshold compared with the model group: i.v., 30 min after injection; for tenderness threshold: tail vein i.v. 24 h after incision, measured 30 min after injection, model group 8.91 g
Protocol: Example 3. Treatment Effect of the Combination of the KOR Agonist and the MOR Agonist of the Present Invention on Incision Pain in Rats
Compound 5 (prepared according to the method described in Example 1), and compound 20 (prepared according to the method described in Example 2). The compound dose was calculated on bases.
Experimental male Wistar rats were purchased from Shanghai Slac Laboratory Animal Co., Ltd. The rats weighed 140-160 g when purchased, and were fed at 5 rats/cage, under a condition of 12/12 hours light/dark cycle adjustment, a constant temperature of 23±1° C., a humidity of 50-60%, and free access to food and water. After purchase, the animals were subjected to an adaptive feeding for more than 3 days before the experiment was started.
Electronic Von Frey: UGO BASILE, type 38450.
Both compound 5 and compound 20 were formulated with normal saline.
The rats were randomly divided into the following groups according to the body weight: blank control group (n=10), model group (n=10) and drug-administered group (n=50). The drug-administered group was divided into the following groups: compound 20-0.03 mg/kg group (n=10), compound 5-0.3 mg/kg group (n=10), compound 5-0.1 mg/kg+compound 20-0.03 mg/kg group (n=10), compound 5-0.3 mg/kg+compound 20-0.03 mg/kg group (n=10), and compound 5-1 mg/kg+compound 20-0.03 mg/kg group (n=10). The model group and drug-administered group were subjected to an incision surgery. During the surgery, the rats were anesthetized with isoflurane. An incision (1 cm long) passing through the skin and fascia was made with a No. 10 surgical blade in the middle of the left hind paw. The skin was sutured with a 3-0 sterile silk surgical suture. The injured site was disinfected with antibiotic ointment and iodophor. The animals were returned to their original place to recover overnight. After 24 hours, the drug was injected through the tail vein, and the blank control group and the model group were administrated with normal saline two times with an interval of 15 minutes. The group administered with compound 20 alone was intravenously injected with the corresponding dose of compound 20 and the blank solvent for formulating compound 5. The group administered with compound 5 alone was intravenously injected with the corresponding dose of compound 5 and the blank solvent for formulating compound 20. […] The mechanical pain threshold of each group was measured by the Electronic Von Frey 30 minutes after the injection to evaluate the analgesic effect of the drug on the surgical incision pain and the intensity thereof.
The experimental data were expressed as mean±standard deviation (S.D.). […]

Row | Compound | increase of tenderness threshold compared with the model group (compound 5 0.3 mg/kg alone) [%] | tenderness threshold (compound 5 0.3 mg/kg alone) [g] | increase of tenderness threshold compared with the model group (compound 20 0.03 mg/kg alone) [%] | tenderness threshold (compound 20 0.03 mg/kg alone, blank control 14.48 g) [g]
1 | CC(C)C[C@@H](NC(=O)[C@@H](Cc1ccccc1)NC(=O)CNC[C@H](C)c1ccccc1)C(=O)N[C@H](CCCCN)C(=O)N1CCC(N)(C(=O)O)CC1 [compound 5, 4-Amino-1-((2R,5R,8R,14R)-2-(4-aminobutyl)-8-benzyl-5-isobutyl-4,7,10-trioxo-14-phenyl-3,6,9,12-tetraazapentadecan-1-oyl)piperidine-4-carboxylic acid] (H-[Gly(N-(2R-Ph-propyl))][dF][dL][dK]-{Piperidin1yl(4-NH2,4-COOH)}) | 101.1 | 17.92 |  | 
2 | CCO[C@H]1CC[C@H](NCC[C@@]2(c3ccccn3)CCOC3(CCCC3)C2)c2ccccc21 [compound 20, (1S,4S)-4-Ethoxy-N-(2-((R)-9-(pyridin-2-yl)-6-oxaspiro[4.5]decan-9-yl)ethyl)-1,2,3,4-tetrahydronaphthalen-1-amine] |  |  | 62.3 | 14.46

From patent publication US11471503B2, “Use of KOR agonist in combination with MOR agonist in preparing drug for treating pain” (JIANGSU HENGRUI MEDICINE CO., LTD., priority 2017, dated 2022)
